Measured values as given in PubChem BioAssay AID1963982 (Molecular Pharmacology Branch, DTP, NCI, 2024).

System: 313798-341-R-J2-PDC spheroids, viability
Test: Anticancer human tumor 313798-341-R-J2-PDC patient-derived cervical squamous cell carcinoma cell line growth inhibition [PI3K]
Conditions: spheroids with HUVEC and MSC; for IC50: curve of first compound; for viability, T/C: stronger effect = lower value
In short: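 Viability of mixed-cell spheroids was determined after exposure to pairwise combinations, one partner being inavolisib, alpelisib, duvelisib or copanlisib. Highest tested concentration matched clinical Cmax where known and 10 microM where not, descending in half-log steps.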
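Also: spheroids exposed to compounds for seven days.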
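For viability, T/C in this document: 100% = DMSO vehicle control viability.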

Q: Which results are given for `CNC(=O)c1ccc(N2C(=S)N(c3ccc(C#N)c(C(F)(F)F)c3)C(=O)C2(C)C)cc1F` + Cc1nc(NC(=O)N2CCCC2C(N)=O)sc1-c1ccnc(C(C)(C)C(F)(F)F)c1?
A: IC50 (second compound 0.0316 µM): > 10 µM; IC50 (second compound 0.1 µM): > 10 µM; IC50 (second compound 0.316 µM): > 10 µM; IC50 (second compound 1 µM): > 10 µM; IC50 (second compound 3.16 µM): > 10 µM; IC50 (second compound 10 µM): < 0.0316 µM; viability, T/C (second compound 0.0316 µM, first compound 0.0316 µM): 97.5%; viability, T/C (second compound 0.0316 µM, first compound 0.1 µM): 104%; viability, T/C (second compound 0.0316 µM, first compound 0.316 µM): 92.3%; viability, T/C (second compound 0.0316 µM, first compound 1 µM): 107%; viability, T/C (second compound 0.0316 µM, first compound 3.16 µM): 119%; viability, T/C (second compound 0.0316 µM, first compound 10 µM): 88.4%; viability, T/C (second compound 0.1 µM, first compound 0.0316 µM): 116%; viability, T/C (second compound 0.1 µM, first compound 0.1 µM): 101%; viability, T/C (second compound 0.1 µM, first compound 0.316 µM): 99.5%; viability, T/C (second compound 0.1 µM, first compound 1 µM): 105%; viability, T/C (second compound 0.1 µM, first compound 3.16 µM): 111%; viability, T/C (second compound 0.1 µM, first compound 10 µM): 114%; viability, T/C (second compound 0.316 µM, first compound 0.0316 µM): 104%; viability, T/C (second compound 0.316 µM, first compound 0.1 µM): 104%; viability, T/C (second compound 0.316 µM, first compound 0.316 µM): 107%; viability, T/C (second compound 0.316 µM, first compound 1 µM): 102%; viability, T/C (second compound 0.316 µM, first compound 3.16 µM): 117%; viability, T/C (second compound 0.316 µM, first compound 10 µM): 111%; viability, T/C (second compound 1 µM, first compound 0.0316 µM): 94.3%; viability, T/C (second compound 1 µM, first compound 0.1 µM): 89.4%; viability, T/C (second compound 1 µM, first compound 0.316 µM): 96.2%; viability, T/C (second compound 1 µM, first compound 1 µM): 96%; viability, T/C (second compound 1 µM, first compound 3.16 µM): 90.3%; viability, T/C (second compound 1 µM, first compound 10 µM): 90.4%; viability, T/C (second compound 3.16 µM, first compound 0.0316 µM): 67.4%; viability, T/C (second compound 3.16 µM, first compound 0.1 µM): 64.7%; viability, T/C (second compound 3.16 µM, first compound 0.316 µM): 65.9%; viability, T/C (second compound 3.16 µM, first compound 1 µM): 64.9%; viability, T/C (second compound 3.16 µM, first compound 3.16 µM): 61.5%; viability, T/C (second compound 3.16 µM, first compound 10 µM): 54.5%; viability, T/C (second compound 10 µM, first compound 0.0316 µM): 36%; viability, T/C (second compound 10 µM, first compound 0.1 µM): 39.3%; viability, T/C (second compound 10 µM, first compound 0.316 µM): 38.5%; viability, T/C (second compound 10 µM, first compound 1 µM): 36.8%; viability, T/C (second compound 10 µM, first compound 3.16 µM): 35.5%; viability, T/C (second compound 10 µM, first compound 10 µM): 33%

Q: What does the source list for `Cn1cnc2c(F)c(Nc3ccc(Br)cc3Cl)c(C(=O)NOCCO)cc21` + Cc1nc(NC(=O)N2CCCC2C(N)=O)sc1-c1ccnc(C(C)(C)C(F)(F)F)c1?
A: IC50 (second compound 0.0316 µM): > 3 µM; IC50 (second compound 0.1 µM): > 3 µM; IC50 (second compound 0.316 µM): > 3 µM; IC50 (second compound 1 µM): 2.79 µM; IC50 (second compound 3.16 µM): 0.1 µM; IC50 (second compound 10 µM): < 0.00949 µM; viability, T/C (second compound 0.0316 µM, first compound 0.00949 µM): 98.8%; viability, T/C (second compound 0.0316 µM, first compound 0.03 µM): 95.7%; viability, T/C (second compound 0.0316 µM, first compound 0.0949 µM): 95.7%; viability, T/C (second compound 0.0316 µM, first compound 0.3 µM): 98.7%; viability, T/C (second compound 0.0316 µM, first compound 0.949 µM): 98.6%; viability, T/C (second compound 0.0316 µM, first compound 3 µM): 81.5%; viability, T/C (second compound 0.1 µM, first compound 0.00949 µM): 105%; viability, T/C (second compound 0.1 µM, first compound 0.03 µM): 102%; viability, T/C (second compound 0.1 µM, first compound 0.0949 µM): 98%; viability, T/C (second compound 0.1 µM, first compound 0.3 µM): 107%; viability, T/C (second compound 0.1 µM, first compound 0.949 µM): 99.4%; viability, T/C (second compound 0.1 µM, first compound 3 µM): 83.7%; viability, T/C (second compound 0.316 µM, first compound 0.00949 µM): 109%; viability, T/C (second compound 0.316 µM, first compound 0.03 µM): 99.7%; viability, T/C (second compound 0.316 µM, first compound 0.0949 µM): 98.6%; viability, T/C (second compound 0.316 µM, first compound 0.3 µM): 100%; viability, T/C (second compound 0.316 µM, first compound 0.949 µM): 92.6%; viability, T/C (second compound 0.316 µM, first compound 3 µM): 70.9%; viability, T/C (second compound 1 µM, first compound 0.00949 µM): 84%; viability, T/C (second compound 1 µM, first compound 0.03 µM): 79.1%; viability, T/C (second compound 1 µM, first compound 0.0949 µM): 71.4%; viability, T/C (second compound 1 µM, first compound 0.3 µM): 76.5%; viability, T/C (second compound 1 µM, first compound 0.949 µM): 68.7%; viability, T/C (second compound 1 µM, first compound 3 µM): 48.4%; viability, T/C (second compound 3.16 µM, first compound 0.00949 µM): 55.3%; viability, T/C (second compound 3.16 µM, first compound 0.03 µM): 50.3%; viability, T/C (second compound 3.16 µM, first compound 0.0949 µM): 50.7%; viability, T/C (second compound 3.16 µM, first compound 0.3 µM): 47.5%; viability, T/C (second compound 3.16 µM, first compound 0.949 µM): 39.9%; viability, T/C (second compound 3.16 µM, first compound 3 µM): 32.8%; viability, T/C (second compound 10 µM, first compound 0.00949 µM): 32.2%; viability, T/C (second compound 10 µM, first compound 0.03 µM): 25.8%; viability, T/C (second compound 10 µM, first compound 0.0949 µM): 23%; viability, T/C (second compound 10 µM, first compound 0.3 µM): 24.3%; viability, T/C (second compound 10 µM, first compound 0.949 µM): 17.1%; viability, T/C (second compound 10 µM, first compound 3 µM): 10.4%
